# US9493436B2, “Tyrosine phosphatase inhibitors and uses thereof to modulate the activity of enzymes involved in the pathology of Mycobacterium tuberculosis” (priority 2011, dated 2016)
# “Also recorded” adds a separate entry of the source.
# How the values were obtained:
# mPTPA = mPTPA (Mycobacterium tuberculosis, UniProt P9WIA1); assay: PTP selectivity panel: mPTPA; type: biochemical
# mPTPB = biological target: T1, mPTPB (Mycobacterium tuberculosis, UniProt I6WXK4); assay: biochemical; type: biochemical
# T1 construct: The full-length mPTPB with a N-terminal His6-tag was expressed and purified; His6 (N); made in house; host or cells: E. coli BL21/DE3 (pET28b-mPTPB)
# T1 sequence (I6WXK4 1-276): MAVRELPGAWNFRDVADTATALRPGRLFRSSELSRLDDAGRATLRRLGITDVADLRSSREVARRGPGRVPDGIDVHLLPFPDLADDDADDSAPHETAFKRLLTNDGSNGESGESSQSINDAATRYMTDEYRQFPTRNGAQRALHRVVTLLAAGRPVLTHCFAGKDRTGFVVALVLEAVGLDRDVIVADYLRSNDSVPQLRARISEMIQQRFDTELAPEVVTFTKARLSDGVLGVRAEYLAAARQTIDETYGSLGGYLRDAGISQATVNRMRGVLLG
# [1] = tested on: ERK1/2 phosphorylation in Raw264.7 cells expressing mPTPB; assay: ERK phosphorylation in macrophage cells expressing mPTPB (western blot); type: cell-based, mouse; details: IFN-γ, L01Z08 especially at 120 and 240 nM
# Method: As explained above, ERK phosphorylation is important in the cellular secretion pathway of IL-6. However, mPTPB blocks or inhibits the phosphorylation of ERK which reduces and potentially prevents IL-6 secretion altogether.
# Raw264.7 mouse macrophages were cultured in Dulbecco's modified Eagle's medium (DMEM) supplemented with 10% FBS (Invitrogen), penicillin (50 units/mL), and streptomycin (50 μg/mL) under a humidified atmosphere containing 5% CO2 at 37° C. Transfected Raw264.7 cells (Vector, WT-mPTPB) were seeded in a 12-well plate at a density of 4×10^4 cells/well. The following day cells were treated with mPTPB inhibitor 213a for 1 hr, then stimulated with IFN-γ (200 U/ml) for 1 h. […]. Wash with ice-cold phosphate buffered saline, and lysed with lysis buffer on ice for 30 min. Cell lysate is then cleared by centrifuging at 13,000 rpm for 15 min. The phosphorylation of ERK1/2 and Akt was detected by western blotting.
# [2] = tested on: Akt phosphorylation in Raw264.7 cells expressing mPTPB; type: cell-based, mouse; details: macrophage cells expressing mPTPB, increasing concentrations
# mPTPA, sequence (P9WIA1 whole entry): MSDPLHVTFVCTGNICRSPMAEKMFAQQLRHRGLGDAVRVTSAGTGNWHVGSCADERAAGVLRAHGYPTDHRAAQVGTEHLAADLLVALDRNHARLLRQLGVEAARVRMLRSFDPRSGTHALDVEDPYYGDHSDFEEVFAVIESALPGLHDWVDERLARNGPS
compound,measurement,setting,value
"Cn1c(-c2ccccc2C(F)(F)F)c(C(=O)CCNC(=O)c2cc(Br)cc(Br)c2)c2cc(C(=O)O)c(O)cc21 [Compound 213a, 3-(3-(3,5-dibromobenzamido)propanoyl)-6-hydroxy-1-methyl-2-(2-(trifluoromethyl)phenyl)-1H-indole-5-carboxylic acid]",IC50,mPTPA,10900 ± 500 nM
same,more potent than parent compound 207a,mPTPB,14 fold
same,more selective than parent compound 207a,mPTPB,43 fold
same,In % @ 1 μM (mPTPB),"mPTPB; 1 μM, library 13 screened in situ",81%
same,mode of mPTPB inhibition,"mPTPB; kinetic analyses, Lineweaver-Burk plot",Non-competitive inhibitor; also recorded: reversible and noncompetitive inhibitor
same,Ki,"mPTPB; pH 7.0, 25° C.",50 ± 2 nM
same,IC50,"mPTPB; pNPP substrate, pH 7.0, 25° C., read-out: IC50 (μM) against mPTPB",0.079 ± 0.01 µM
same,selectivity for mPTPB over the other ten PTPs,mPTPB; panel of 11 PTPs,over 90 fold
same,ERK phosphorylation / ERK1/2 activity,[1],restore ERK1/2 activity; also recorded: increased the ERK activity
same,AKT phosphorylation / Akt activation,[2],blocks Akt activation; also recorded: decreased the Akt activity
